In US10167262B2, “Herbicidal substituted 3-arylpyrazoles” (FMC CORPORATION, priority 2014, dated 2019):

How the values were obtained:
Type in all cases: in vivo
[1] = system: chickweed (common chickweed, Stellaria media); assay: Test C postemergence greenhouse test, plant response rating 0-100; settings: for Plant response rating, Chickweed: scale 0 to 100
Excerpt: (§1) At the same time, plants selected from these crop and weed species and also winter barley (Hordeum vulgare), bermudagrass (Cynodon dactylon), downy bromegrass (Bromus tectorum), canarygrass (Phalaris minor), cocklebur (common cocklebur, Xanthium strumarium), woolly cupgrass (Eriochloa villosa), deadnettle (henbit deadnettle, Lamium amplexicaule), green foxtail (Setaria viridis), goosegrass (Eleusine indica), surinam grass (Brachiaria decumbens), windgrass (Apera spica-venti), chickweed (common chickweed, Stellaria media), kochia (Kochia scoparia), and wild oat (Avena fatua), were planted in pots containing Redi-Earth® planting medium (Scotts Company, 14111 Scottslawn Road, Marysville, Ohio 43041) comprising spaghnum peat moss, vermiculite, wetting agent and starter nutrients and treated with postemergence applications of test chemicals formulated in the same manner. Plants ranged in height from 2 to 18 cm (1- to 4-leaf stage) for postemergence treatments. Treated plants and controls were maintained in a greenhouse for 13 to 15 days, after which time all species were compared to controls and visually evaluated. Plant response ratings, summarized in Table C, are based on a scale of 0 to 100 where 0 is no effect and 100 is complete control. A dash (-) response means no test result.

kochia (Kochia scoparia) = assay: as above; settings: for Plant response rating, Kochia: scale 0 to 100
Excerpt: as §1

wild oat (Avena fatua) = assay: as above; settings: for Plant response rating, Oat, Wild: scale 0 to 100
Excerpt: as §1

[2] = system: large (Lg) crabgrass (Digitaria sanguinalis); assay: Test C pre-/postemergence greenhouse test, plant response rating 0-100; settings: Postemergence; for Plant response rating, Crabgrass, Large: scale 0 to 100
In short: (§2)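 Visual 0–100 control scores, taken 13 to 15 days post-application in a greenhouse, reflect treatment preemergence (seed in loam soil with sand) or postemergence (2–18 cm plants in peat moss, vermiculite medium). A dash marks no result.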

soybean (Glycine max) = assay: as above
In short: as §2

[3] = system: galium (catchweed bedstraw, Galium aparine); assay: as above; settings: Postemergence; for Plant response rating, Galium: scale 0 to 100
In short: as §2

[4] = system: winter wheat (Triticum aestivum); assay: as above
In short: as §2

[5] = system: lambsquarters (Chenopodium album); assay: as above; settings: Postemergence; for Plant response rating, Lambsquarters: scale 0 to 100
In short: as §2

[6] = system: blackgrass (Alopecurus myosuroides); assay: as above; settings: Postemergence; for Plant response rating, Blackgrass: scale 0 to 100
In short: as §2

[7] = system: giant foxtail (Setaria faberii); assay: as above; settings: Postemergence; for Plant response rating, Foxtail, Giant: scale 0 to 100
In short: as §2

[8] = system: yellow nutsedge (Cyperus esculentus); assay: as above; settings: Postemergence; for Plant response rating, Nutsedge, Yellow: scale 0 to 100
In short: as §2

[9] = system: johnsongrass (Sorghum halepense); assay: as above; settings: Postemergence; for Plant response rating, Johnsongrass: scale 0 to 100
In short: as §2

[10] = system: morningglory (Ipomoea coccinea); assay: as above; settings: Postemergence; for Plant response rating, Morningglory: scale 0 to 100
In short: as §2

[11] = Postemergence, 250 g ai/ha, scale 0 to 100
[12] = Postemergence, 500 g ai/ha, scale 0 to 100

ON=C(c1ccccc1)c1c[nH]nc1-c1cc(Cl)cc(Cl)c1 [Compound 50] was tested, and the “Plant response rating (0 to 100), Chickweed” value ([1]; 31 g ai/ha) was 95, the “Plant response rating (0 to 100), Chickweed” value ([1]; 62 g ai/ha) was 95 and the “Plant response rating (0 to 100), Chickweed” value ([1]; 125 g ai/ha) was 100. For the same compound, the “Plant response rating, Chickweed” value ([1]; 250 g ai/ha) was 100, the “Plant response rating (0 to 100), Kochia” value (kochia (Kochia scoparia); 62 g ai/ha) was 60 and the “Plant response rating (0 to 100), Kochia” value (kochia (Kochia scoparia); 125 g ai/ha) was 65. For the same compound, the “Plant response rating, Kochia” value (kochia (Kochia scoparia); 250 g ai/ha) was 65, the “Plant response rating (0 to 100), Oat, Wild” value (wild oat (Avena fatua); 62 g ai/ha) was 0 and the “Plant response rating (0 to 100), Oat, Wild” value (wild oat (Avena fatua); 125 g ai/ha) was 0. The “Plant response rating, Oat, Wild” value (wild oat (Avena fatua); 250 g ai/ha) was 0, the “Plant response rating (0 to 100), Crabgrass, Large” value ([2]; 31 g ai/ha) was 0 and the “Plant response rating (0 to 100), Crabgrass, Large” value ([2]; 62 g ai/ha) was 0. The “Plant response rating (0 to 100), Crabgrass, Large” value ([2]; 125 g ai/ha) was 0, the “Plant response rating, Crabgrass, Large” value ([2]; 250 g ai/ha) was 0 and the “Plant response rating (0 to 100), Soybean” value (soybean (Glycine max); Postemergence, 62 g ai/ha) was 0. For the same compound, the “Plant response rating (0 to 100), Soybean” value (soybean (Glycine max); Postemergence, 125 g ai/ha) was 0, the “Plant response rating, Soybean” value (soybean (Glycine max); [11]) was 0 and the “Plant response rating (0 to 100), Galium” value ([3]; 31 g ai/ha) was 0. For the same compound, the “Plant response rating (0 to 100), Galium” value ([3]; 62 g ai/ha) was 0, the “Plant response rating (0 to 100), Galium” value ([3]; 125 g ai/ha) was 5 and the “Plant response rating, Galium” value ([3]; 250 g ai/ha) was 5. The “Plant response rating (0 to 100), Wheat” value ([4]; Postemergence, 62 g ai/ha) was 0, the “Plant response rating (0 to 100), Wheat” value ([4]; Postemergence, 125 g ai/ha) was 0 and the “Plant response rating, Wheat” value [4, 11] was 0. For the same compound, the “Plant response rating (0 to 100), Lambsquarters” value ([5]; 62 g ai/ha) was 80, the “Plant response rating (0 to 100), Lambsquarters” value ([5]; 125 g ai/ha) was 100 and the “Plant response rating, Lambsquarters” value ([5]; 250 g ai/ha) was 100. The “Plant response rating (0 to 100), Blackgrass” value ([6]; 31 g ai/ha) was 0, the “Plant response rating (0 to 100), Blackgrass” value ([6]; 62 g ai/ha) was 0 and the “Plant response rating (0 to 100), Blackgrass” value ([6]; 125 g ai/ha) was 0. For the same compound, the “Plant response rating, Blackgrass” value ([6]; 250 g ai/ha) was 0, the “Plant response rating (0 to 100), Foxtail, Giant” value ([7]; 31 g ai/ha) was 0 and the “Plant response rating (0 to 100), Foxtail, Giant” value ([7]; 62 g ai/ha) was 0. For the same compound, the “Plant response rating (0 to 100), Foxtail, Giant” value ([7]; 125 g ai/ha) was 0, the “Plant response rating, Foxtail, Giant” value ([7]; 250 g ai/ha) was 0 and the “Plant response rating (0 to 100), Nutsedge, Yellow” value ([8]; 62 g ai/ha) was 0. The “Plant response rating (0 to 100), Nutsedge, Yellow” value ([8]; 125 g ai/ha) was 0, the “Plant response rating, Nutsedge, Yellow” value ([8]; 250 g ai/ha) was 0 and the “Plant response rating (0 to 100), Johnsongrass” value ([9]; 62 g ai/ha) was 0. For the same compound, the “Plant response rating (0 to 100), Johnsongrass” value ([9]; 125 g ai/ha) was 0, the “Plant response rating, Johnsongrass” value ([9]; 250 g ai/ha) was 0 and the “Plant response rating (0 to 100), Morningglory” value ([10]; 62 g ai/ha) was 0. For the same compound, the “Plant response rating (0 to 100), Morningglory” value ([10]; 125 g ai/ha) was 0 and the “Plant response rating, Morningglory” value ([10]; 250 g ai/ha) was 0.

In the case of O=C(c1ccccc1)c1cn(S(=O)(=O)C(F)(F)F)nc1-c1cc(Cl)cc(Cl)c1 [Compound 2], the “Plant response rating (0 to 100), Chickweed” value ([1]; 62 g ai/ha) is reported as 98, the “Plant response rating (0 to 100), Chickweed” value ([1]; 125 g ai/ha) is reported as 100 and the “Plant response rating, Chickweed” value ([1]; 250 g ai/ha) is reported as 100. For the same compound, the “Plant response rating, Chickweed” value ([1]; 500 g ai/ha) was 100, the “Plant response rating (0 to 100), Kochia” value (kochia (Kochia scoparia); 62 g ai/ha) was 80 and the “Plant response rating (0 to 100), Kochia” value (kochia (Kochia scoparia); 125 g ai/ha) was 85. For the same compound, the “Plant response rating, Kochia” value (kochia (Kochia scoparia); 250 g ai/ha) was 90, the “Plant response rating, Kochia” value (kochia (Kochia scoparia); 500 g ai/ha) was 95 and the “Plant response rating (0 to 100), Oat, Wild” value (wild oat (Avena fatua); 62 g ai/ha) was 0. The “Plant response rating (0 to 100), Oat, Wild” value (wild oat (Avena fatua); 125 g ai/ha) was 0, the “Plant response rating, Oat, Wild” value (wild oat (Avena fatua); 250 g ai/ha) was 0 and the “Plant response rating, Oat, Wild” value (wild oat (Avena fatua); 500 g ai/ha) was 0. For the same compound, the “Plant response rating (0 to 100), Crabgrass, Large” value ([2]; 62 g ai/ha) was 0, the “Plant response rating (0 to 100), Crabgrass, Large” value ([2]; 125 g ai/ha) was 0 and the “Plant response rating, Crabgrass, Large” value ([2]; 250 g ai/ha) was 0. For the same compound, the “Plant response rating, Crabgrass, Large” value ([2]; 500 g ai/ha) was 0, the “Plant response rating (0 to 100), Soybean” value (soybean (Glycine max); Postemergence, 62 g ai/ha) was 0 and the “Plant response rating (0 to 100), Soybean” value (soybean (Glycine max); Postemergence, 125 g ai/ha) was 0. For the same compound, the “Plant response rating, Soybean” value (soybean (Glycine max); [11]) was 0, the “Plant response rating, Soybean” value (soybean (Glycine max); [12]) was 5 and the “Plant response rating, Soybean” value (soybean (Glycine max); Preemergence, 0 to 100 scale (0 no effect, 100 complete control), rate 500 g ai/ha per head r3, sub-head of this section not shown) was 0. The “Plant response rating (0 to 100), Galium” value ([3]; 62 g ai/ha) was 0, the “Plant response rating (0 to 100), Galium” value ([3]; 125 g ai/ha) was 0 and the “Plant response rating, Galium” value ([3]; 250 g ai/ha) was 50. The “Plant response rating, Galium” value ([3]; 500 g ai/ha) was 50, the “Plant response rating (0 to 100), Wheat” value ([4]; Postemergence, 62 g ai/ha) was 0 and the “Plant response rating (0 to 100), Wheat” value ([4]; Postemergence, 125 g ai/ha) was 0. For the same compound, the “Plant response rating, Wheat” value [4, 11] was 0, the “Plant response rating, Wheat” value [4, 12] was 0 and the “Plant response rating, Wheat” value ([4]; Preemergence, 0 to 100 scale (0 no effect, 100 complete control), rate 500 g ai/ha) was 0. For the same compound, the “Plant response rating (0 to 100), Lambsquarters” value ([5]; 62 g ai/ha) was 85, the “Plant response rating (0 to 100), Lambsquarters” value ([5]; 125 g ai/ha) was 85 and the “Plant response rating, Lambsquarters” value ([5]; 250 g ai/ha) was 85. For the same compound, the “Plant response rating, Lambsquarters” value ([5]; 500 g ai/ha) was 90, the “Plant response rating (0 to 100), Blackgrass” value ([6]; 62 g ai/ha) was 0 and the “Plant response rating, Blackgrass” value ([6]; 125 g ai/ha) was 0. The “Plant response rating, Blackgrass” value ([6]; 250 g ai/ha) was 0, the “Plant response rating, Blackgrass” value ([6]; 500 g ai/ha) was 0 and the “Plant response rating (0 to 100), Foxtail, Giant” value ([7]; 62 g ai/ha) was 0. For the same compound, the “Plant response rating (0 to 100), Foxtail, Giant” value ([7]; 125 g ai/ha) was 0, the “Plant response rating, Foxtail, Giant” value ([7]; 250 g ai/ha) was 0 and the “Plant response rating, Foxtail, Giant” value ([7]; 500 g ai/ha) was 0. For the same compound, the “Plant response rating (0 to 100), Nutsedge, Yellow” value ([8]; 62 g ai/ha) was 0, the “Plant response rating (0 to 100), Nutsedge, Yellow” value ([8]; 125 g ai/ha) was 0 and the “Plant response rating, Nutsedge, Yellow” value ([8]; 250 g ai/ha) was 0. The “Plant response rating, Nutsedge, Yellow” value ([8]; 500 g ai/ha) was 0, the “Plant response rating (0 to 100), Johnsongrass” value ([9]; 62 g ai/ha) was 0 and the “Plant response rating (0 to 100), Johnsongrass” value ([9]; 125 g ai/ha) was 0. For the same compound, the “Plant response rating, Johnsongrass” value ([9]; 250 g ai/ha) was 0, the “Plant response rating, Johnsongrass” value ([9]; 500 g ai/ha) was 0 and the “Plant response rating (0 to 100), Morningglory” value ([10]; 62 g ai/ha) was 0. The “Plant response rating (0 to 100), Morningglory” value ([10]; 125 g ai/ha) was 0, the “Plant response rating, Morningglory” value ([10]; 250 g ai/ha) was 0 and the “Plant response rating, Morningglory” value ([10]; 500 g ai/ha) was 10.
